Assay results as given in PubChem BioAssay (NCI).
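Test compounds were applied to cells in 96-well plates for 48 hours at 5 doses. The concentration for full growth arrest is given as TGI.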

Tests used:
Assay in all cases: NCI-60 cell line screen, 48 h
COLO 205 colon = tested on: COLO 205 colon
HCT-15 colon = tested on: HCT-15 colon
HS 578T breast = tested on: HS 578T breast
HOP-62 NSCLC = tested on: HOP-62 NSCLC
SW-620 colon = tested on: SW-620 colon
RXF 393 renal = tested on: RXF 393 renal
DU-145 prostate = tested on: DU-145 prostate
SK-MEL-5 melanoma = tested on: SK-MEL-5 melanoma
UACC-62 melanoma = tested on: UACC-62 melanoma
M14 melanoma = tested on: M14 melanoma
OVCAR-5 ovarian = tested on: OVCAR-5 ovarian
OVCAR-3 ovarian = tested on: OVCAR-3 ovarian
OVCAR-4 ovarian = tested on: OVCAR-4 ovarian

SMILES | TGI (COLO 205 colon) | TGI (HCT-15 colon) | TGI (HS 578T breast) | TGI (HOP-62 NSCLC) | TGI (SW-620 colon) | TGI (RXF 393 renal) | TGI (DU-145 prostate) | TGI (SK-MEL-5 melanoma) | TGI (UACC-62 melanoma) | TGI (M14 melanoma) | TGI (OVCAR-5 ovarian) | TGI (OVCAR-3 ovarian) | TGI (OVCAR-4 ovarian)
CCN(/C=C1/C(=O)C(c2ccccc2)N(c2ccccc2)C1=O)CC (stereo not given) | > 10 µM | > 10 µM | > 10 µM | > 10 µM | > 10 µM | > 10 µM | > 10 µM | > 10 µM | > 10 µM | > 10 µM | > 10 µM | > 10 µM | > 10 µM
CN(NC1=NCCO1)c1ccc2ccccc2c1 | > 100 µM | > 100 µM | > 100 µM | > 100 µM | > 100 µM | > 100 µM | > 100 µM | 93.3 µM | > 100 µM | > 100 µM | > 100 µM | 72.7 µM | > 100 µM
COC(=O)/C=C(\C(=O)OC)c1cc(C)c2cc(C(C)C)ccc(C)c1-2 | > 100 µM | 27.5 µM | > 100 µM | > 100 µM | > 100 µM | > 100 µM | > 100 µM | 80 µM | > 100 µM | > 100 µM | > 100 µM | > 100 µM | > 100 µM
CC(SC(=S)N1CCOCC1)C(=O)Nc1nnc(-c2ccc(Cl)cc2)o1 (stereo not given) | > 100 µM | > 100 µM | > 100 µM | > 100 µM | > 100 µM | > 100 µM | > 100 µM | > 100 µM | > 100 µM | > 100 µM | > 100 µM | > 100 µM | > 100 µM
NS(=O)(=O)c1nnc(NC(=S)NC(=O)Nc2ccc(Cl)c(Cl)c2)s1 | 39.1 µM | 48.9 µM | 67.2 µM | 63.7 µM | 65.5 µM | 42.3 µM | 53.9 µM | 49 µM | 33.1 µM | 36.1 µM | 67.7 µM | 62 µM | 55.2 µM
COc1ccc(CCCCNCc2cccc(CNCCCCc3ccc(OC)cc3)c2)cc1 | 5.22 µM | 3.55 µM | 3.27 µM | 4.99 µM | 3.28 µM | 3.28 µM | 3.54 µM | 3.25 µM | 3.55 µM | 3.5 µM | 4.33 µM | 3.37 µM | 3.98 µM
Cc1ccc(OCC2OC(n3cnc4c(Cl)nc(Nc5cc(Cl)cc(Cl)c5)nc43)CC2Oc2ccc(C)cc2)cc1 (stereo not given) | > 100 µM | > 100 µM | > 100 µM |  | > 100 µM | > 100 µM | > 100 µM | > 100 µM | > 100 µM | > 100 µM | > 100 µM | > 100 µM | 59.2 µM
